Test results from patent US10556884B2, “Pesticidally active heterocyclic derivatives with sulphur containing substituents” (SYNGENTA PARTICIPATIONS AG, priority 2015, dated 2020).

What was measured:
Type in all cases: in vivo
[1] = test system: Spodoptera littoralis (Egyqptian Cotton Leaf Worm); assay: Spodoptera littoralis L1 larvae on sprayed cotton leaf discs; conditions: foliar, 72 h, application rate of 200 ppm, L1 larvae, 3 days after infestation, read-out: control (mortality, anti-feeding effect, growth inhibition)
Description: Example B8: Spodoptera littoralis (Egyqptian Cotton Leaf Worm)
Cotton leaf discs were placed onto agar in 24-well microtiter plates and sprayed with aqueous test solutions prepared from 10′000 ppm DMSO stock solutions. After drying the leaf discs were infested with five L1 larvae. The samples were assessed for mortality, anti-feeding effect, and growth inhibition in comparison to untreated samples 3 days after infestation. Control of Spodoptera littoralis by a test sample is given when at least one of the categories mortality, anti-feedant effect, and growth inhibition is higher than the untreated sample.

[2] = test system: Thrips tabaci (Onion Thrips); assay: Thrips tabaci feeding/contact activity, sunflower leaf discs; conditions: foliar, 144 h, application rate of 200 ppm, population of mixed ages, 6 days after infestation
Description: Example B11: Thrips tabaci (Onion Thrips) Feeding/Contact Activity
(§1) Sunflower leaf discs were placed on agar in 24-well microtiter plates and sprayed with aqueous test solutions prepared from 10′000 ppm DMSO stock solutions. After drying the leaf discs were infested with a thrips population of mixed ages. The samples were assessed for mortality 6 days after infestation.

[3] = test system: Myzus persicae (Green Peach Aphid); assay: Myzus persicae systemic activity, pea seedlings; conditions: 144 h, test rate of 24 ppm, 6 days after placing seedlings into test solutions
[4] = test system: Bemisia tabaci (Cotton White Fly); assay: Bemisia tabaci feeding/contact activity, cotton leaf discs; conditions: foliar, 144 h, application rate of 200 ppm, adult white flies, 6 days after incubation
Description: Example B1: Bemisia tabaci (Cotton White Fly): Feeding/Contact Activity
Cotton leaf discs were placed on agar in 24-well microtiter plates and sprayed with aqueous test solutions prepared from 10′000 ppm DMSO stock solutions. After drying the leaf discs were infested with adult white flies. The samples were checked for mortality 6 days after incubation.

[5] = test system: Plutella xylostella (Diamond Back Moth); assay: Plutella xylostella L2 larvae on artificial diet; conditions: 120 h, application rate of 200 ppm, L2 larvae, 5 days after infestation, read-out: effect in at least one of the two categories (mortality or growth inhibition)
Description: Example B7: Plutella xylostella (Diamond Back Moth)
(§2) 24-well microtiter plates with artificial diet were treated with aqueous test solutions prepared from 10′000 ppm DMSO stock solutions by pipetting. After drying, the plates were infested with L2 larvae (10 to 15 per well). The samples were assessed for mortality and growth inhibition in comparison to untreated samples 5 days after infestation.

[6] = test system: Diabrotica Balteata (Corn Root Worm); assay: Diabrotica balteata L2 larvae on maize sprouts; conditions: 96 h, application rate of 200 ppm, L2 larvae, 4 days after infestation, read-out: effect in at least one of the two categories (mortality or growth inhibition)
Description: Example B2: Diabrotica Balteata (Corn Root Worm)
as §2, with “Maize sprouts placed onto an agar layer in 24-well” for “24-well”, “plates” for “plates with artificial diet”, “spraying.” for “pipetting.”, “(6” for “(10”, “10” for “15”, “4” for “5”

[7] = test system: Myzus persicae (Green Peach Aphid); assay: Myzus persicae feeding/contact activity, sunflower leaf discs; conditions: foliar, 144 h, application rate of 200 ppm, feeding/contact, population of mixed ages, 6 days after infestation, read-out: mortality
Description: Example B5: Myzus persicae (Green Peach Aphid): Feeding/Contact Activity
Sunflower leaf discs were placed onto agar in a 24-well microtiter plate and sprayed with aqueous test solutions prepared from 10′000 ppm DMSO stock solutions. After drying, the leaf discs were infested with an aphid population of mixed ages. The samples were assessed for mortality 6 days after infestation.

[8] = test system: Frankliniella occidentalis (Western Flower Thrips); assay: Frankliniella occidentalis feeding/contact activity, sunflower leaf discs; conditions: foliar, 168 h, application rate of 200 ppm, population of mixed ages, 7 days after infestation
Description: Example B4: Frankliniella occidentalis (Western Flower Thrips): Feeding/Contact Activity
as §1, with “[…]” for “10′000 ppm”, “Frankliniella” for “thrips”, “7” for “6”

[9] = test system: Spodoptera littoralis (Egyqptian Cotton Leaf Worm); assay: Spodoptera littoralis, uptake by lettuce roots from agar; conditions: 144 h, test rate of 12.5 ppm, 6 days after infestation, read-out: effect in at least one of the three categories (mortality, anti-feeding, or growth inhibition)
Description: Example B9: Spodoptera littoralis (Egyqptian Cotton Leaf Worm)
Test compounds were applied by pipette from 10′000 ppm DMSO stock solutions into 24-well plates and mixed with agar. Lettuce seeds were placed onto the agar and the multi well plate was closed by another plate which contained also agar. After 7 days the compound was absorbed by the roots and the lettuce grew into the lid plate. The lettuce leaves were then cut off into the lid plate. Spodoptera eggs were pipetted through a plastic stencil onto a humid gel blotting paper and the lid plate was closed with it. The samples were assessed for mortality, anti-feedant effect and growth inhibition in comparison to untreated samples 6 days after infestation.

[10] = test system: Euschistus heros (Neotropical Brown Stink Bug); assay: Euschistus heros N2 nymphs on soybean leaves; conditions: 120 h, application rate of 200 ppm, 5 days after infestation, read-out: effect in at least one of the two categories (mortality or growth inhibition)
[11] = test system: Tetranychus urticae (Two-Spotted Spider Mite); assay: Tetranychus urticae feeding/contact activity, bean leaf discs; conditions: foliar, 192 h, application rate of 200 ppm, mixed population (mobile stages), 8 days after infestation
Description: Example B10: Tetranychus urticae (Two-Spotted Spider Mite): Feeding/Contact Activity
as §1, with “Bean” for “Sunflower”, “discs” for “discs were placed”, “were” for “and”, “mite” for “thrips”, “on mixed population (mobile stages) 8” for “6”

CCS(=O)(=O)c1cc(Cl)c(N)nc1-c1nnc(-c2cc(C(F)(F)F)ccn2)n1C [A42, 3-chloro-5-ethylsulfonyl-6-[4-methyl-5-[4-(trifluoromethyl)-2-pyridyl]-1,2,4-triazol-3-yl]pyridin-2-amine]
≥ 80%: mortality at 200 ppm [1] | mortality at 200 ppm [2] | mortality at 24 ppm [3] | mortality at 200 ppm [4] | percent effect (mortality or growth inhibition) at 200 ppm [5] | percent effect (mortality or growth inhibition) at 200 ppm [6] | mortality at 200 ppm [7]

CCS(=O)(=O)c1cc(NC(=O)C2CC2)cnc1-c1nnc(-c2cc(C(F)(F)F)ccn2)n1C [A2, N-[5-ethylsulfonyl-6-[4-methyl-5-[4-(trifluoromethyl)-2-pyridyl]-1,2,4-triazol-3-yl]-3-pyridyl]cyclopropanecarboxamide]
≥ 80%: mortality at 24 ppm [3] | percent effect (mortality or growth inhibition) at 200 ppm [6] | mortality at 200 ppm [7] | mortality at 200 ppm [8]

CCS(=O)(=O)c1ccc(C(=O)O)nc1-c1nnc(-c2cc(C(F)(F)F)ccn2)n1C [A34, 5-ethylsulfonyl-6-[4-methyl-5-[4-(trifluoromethyl)-2-pyridyl]-1,2,4-triazol-3-yl]pyridine-2-carboxylic Acid]
≥ 80%: percent effect (mortality, anti-feeding or growth inhibition) at 12.5 ppm [9]

CCS(=O)(=O)c1ccc(N)nc1-c1nnc(-c2cc(C(F)(F)F)ccn2)n1C [A36, 5-ethylsulfonyl-6-[4-methyl-5-[4-(trifluoromethyl)-2-pyridyl]-1,2,4-triazol-3-yl]pyridin-2-amine]
≥ 80%: percent effect (mortality or growth inhibition) at 200 ppm [10] | mortality at 24 ppm [3] | mortality at 200 ppm [7]

CCS(=O)(=O)c1ccc(NC(=O)C2CC2)nc1-c1nnc(-c2cc(C(F)(F)F)ccn2)n1C [A6, N-[5-ethylsulfonyl-6-[4-methyl-5-[4-(trifluoromethyl)-2-pyridyl]-1,2,4-triazol-3-yl]-2-pyridyl]cyclopropanecarboxamide]
≥ 80%: mortality at 24 ppm [3] | mortality at 200 ppm [7] | mortality at 200 ppm [8]

CCS(=O)(=O)c1cc(N(C)C(=O)C2CC2)cnc1-c1nnc(-c2cc(C(F)(F)F)ccn2)n1C [A7, N-[5-ethylsulfonyl-6-[4-methyl-5-[4-(trifluoromethyl)-2-pyridyl]-1,2,4-triazol-3-yl]-3-pyridyl]-N-methyl-cyclopropanecarboxamide]
≥ 80%: percent effect (mortality or growth inhibition) at 200 ppm [10] | mortality at 24 ppm [3] | percent effect (mortality or growth inhibition) at 200 ppm [5] | mortality at 200 ppm [7] | mortality at 200 ppm [8]

CCS(=O)(=O)c1cc(C(=O)NCC#N)cnc1-c1nnc(-c2cc(C(F)(F)F)ccn2)n1C [A26, N-(cyanomethyl)-5-ethylsulfonyl-6-[4-methyl-5-[4-(trifluoromethyl)-2-pyridyl]-1,2,4-triazol-3-yl]pyridine-3-carboxamide]
≥ 80%: mortality at 24 ppm [3] | mortality at 200 ppm [7] | mortality at 200 ppm [11]

CCS(=O)(=O)c1cc(N)c(Br)nc1-c1nnc(-c2cc(C(F)(F)F)ccn2)n1C [A45]
≥ 80%: mortality at 200 ppm [1] | percent effect (mortality or growth inhibition) at 200 ppm [5] | percent effect (mortality or growth inhibition) at 200 ppm [6] | percent effect (mortality, anti-feeding or growth inhibition) at 12.5 ppm [9]

CCS(=O)(=O)c1cc(Br)c(N)nc1-c1nnc(-c2cc(C(F)(F)F)ccn2)n1C [A43]
≥ 80%: mortality at 200 ppm [1] | mortality at 200 ppm [2] | mortality at 24 ppm [3] | mortality at 200 ppm [4] | percent effect (mortality or growth inhibition) at 200 ppm [5] | percent effect (mortality or growth inhibition) at 200 ppm [6] | mortality at 200 ppm [7]

CCS(=O)(=O)c1ccc(NCC(F)(F)F)nc1-c1nnc(-c2cc(C(F)(F)F)ccn2)n1C [A32, 5-ethylsulfonyl-6-[4-methyl-5-[4-(trifluoromethyl)-2-pyridyl]-1,2,4-triazol-3-yl]-N-(2,2,2-trifluoroethyl)pyridin-2-amine]
≥ 80%: mortality at 200 ppm [11]

CCS(=O)(=O)c1cc(NC2CC2)cnc1-c1nnc(-c2cc(C(F)(F)F)ccn2)n1C [A9, N-cyclopropyl-5-ethylsulfonyl-6-[4-methyl-5-[4-(trifluoromethyl)-2-pyridyl]-1,2,4-triazol-3-yl]pyridin-3-amine]
≥ 80%: percent effect (mortality or growth inhibition) at 200 ppm [10] | mortality at 200 ppm [1] | mortality at 24 ppm [3] | mortality at 200 ppm [7] | mortality at 200 ppm [11]

CCS(=O)(=O)c1cc(N(C)N)cnc1-c1nnc(-c2cc(C(F)(F)F)ccn2)n1C [A30, 1-[5-ethylsulfonyl-6-[4-methyl-5-[4-(trifluoromethyl)-2-pyridyl]-1,2,4-triazol-3-yl]-3-pyridyl]-1-methyl-hydrazine]
≥ 80%: percent effect (mortality or growth inhibition) at 200 ppm [10] | mortality at 200 ppm [7]

CCS(=O)(=O)c1ccc(NC(=O)OC(C)(C)C)nc1-c1nnc(-c2cc(C(F)(F)F)ccn2)n1C [A37, tert-butyl N-[5-ethylsulfonyl-6-[4-methyl-5-[4-(trifluoromethyl)-2-pyridyl]-1,2,4-triazol-3-yl]-2-pyridyl]carbamate]
≥ 80%: mortality at 200 ppm [1] | mortality at 24 ppm [3] | percent effect (mortality or growth inhibition) at 200 ppm [5] | mortality at 200 ppm [8]

CCS(=O)(=O)c1ccc(C(=O)N(C)C2CC2)nc1-c1nnc(-c2cc(C(F)(F)F)ccn2)n1C [A17, N-cyclopropyl-5-ethylsulfonyl-N-methyl-6-[4-methyl-5-[4-(trifluoromethyl)-2-pyridyl]-1,2,4-triazol-3-yl]pyridine-2-carboxamide]
≥ 80%: mortality at 24 ppm [3] | mortality at 200 ppm [4] | mortality at 200 ppm [7]

CCS(=O)(=O)c1cc(C(=O)NC2CC2)cnc1-c1nnc(-c2cc(C(F)(F)F)ccn2)n1C [A18, N-cyclopropyl-5-ethylsulfonyl-6-[4-methyl-5-[4-(trifluoromethyl)-2-pyridyl]-1,2,4-triazol-3-yl]pyridine-3-carboxamide]
≥ 80%: mortality at 24 ppm [3] | mortality at 200 ppm [11]
